Measured values taken from publication PMC9811213, “Glutamine deamidation does not increase the immunogenicity of C-peptide in people with type 1 diabetes” (Journal of Translational Autoimmunity, 2022).

Assays:
[1] = tested on: 18 Jurkat T-cell lines expressing C-peptide specific TCRs; test: IL-2 secretion (ELISA) by panel of 18 TCR-transduced Jurkat lines, peptide titration; assay type: cell-based, human; details: Mann-Whitney test, Fig. 2H
Method: (§1) TCR-transduced T cells were cultured, in triplicate, in cRPMI/5% FBS at 2 × 10^4/well with an equal number of EBV-transformed B cells (see Supplementary Table 3) and different peptides (Purar Chemicals). See Supplementary Table 6 for a full list of peptides used in this study. The positive control was PMA (10 ng/mL) and ionomycin (500 ng/mL) in culture media. Negative controls had all cells, but no peptide. After overnight culture supernatant was collected for IL-2 ELISA.
(§2) ELISAs were performed using the ELISA MAX™ Deluxe set Human IL-2 (BioLegend) as per the manufacturer's instructions. […] The reaction was stopped by the addition of 2 M H2SO4 solution (BioLegend) and optical density (OD) measured using a FLUOstar Omega microplate reader (BMG LabTech). The amount of IL-2 secreted was determined using a linear regression of all OD values (minus the background) of the standard curve. […]
Fig. 2 C-peptide specific TCR responses to deamidated C-peptide variants (A) Each peptide is referred to by the position, within C-peptide of the glutamine (Q), in bold, to glutamic acid (E), in red text, substitutions. […] (C) The EC50 for each peptide was calculated the and the EC50 from two independent experiments are shown. […] Statistical significance was determined using the Mann-Whitney test (ns, not significant, […], p < 0.05, **p < 0.01, ***p < 0.001). […]

[2] = tested on: Jurkat line (ACD4_38) expressing a C-peptide specific TCR; test: IL-2 secretion (ELISA) by TCR-transduced Jurkat line, peptide titration; assay type: cell-based, human; details: clone ACD4_38, two independent experiments
Method: as §1
as §2, with “instructions. Briefly, 96-well ELISA plates (Greiner Bio-One) were coated with 100μL/well of purified anti-human IL-2 antibody diluted 1:200.” for “instructions.”
To determine if C-peptide specific TCRs were more sensitive to Q to E variants of C-peptide we tested graded concentrations of wild type C-peptide and five deamidated variants. […] To compare the relative potency of the Q to E substituted peptides the responses were calculated as fold change relative to full-length, WT C-peptide (Fig. 2D). […]

Difference in fold change in EC50 (relative to full-length C-peptide) between clones with overlapping and non-overlapping epitopes [1]	Stimulation compared with WT C-peptide and the other single substituted peptides (EC50, IL-2) [2]	Sequence
no difference		EAEDLQVGQVELGGGPGAGSLQPLALEGSLE [Q31E, C-peptide variant with glutamine 31 substituted for glutamic acid]
	dramatically less stimulatory	EAEDLEVGEVELGGGPGAGSLEPLALEGSLE [QallE, C-peptide with all four glutamines substituted for glutamic acid]
	dramatically less stimulatory	EAEDLQVGEVELGGGPGAGSLQPLALEGSLQ [Q9E, C-peptide variant with glutamine 9 substituted for glutamic acid]
